Assay results: US12466821B2 (Novartis AG, priority 2018, dated 2025)

Columns and labels:
[1] = target: human CMV DNA polymerase UL54 (Human cytomegalovirus (strain AD169) (HHV-5) (Human herpesvirus 5), UniProt P08546); experiment: CMV polymerase biochemical assay (molecular beacon-based)
Description: (§1) Both human CMV DNA polymerase UL54 and human HSV DNA polymerase UL30 were produced as N-terminal MBP fusion of the full length, wild type recombinant proteins in order to enhance soluble expression in insect cell expression system. The proteins were expressed in sf9 insect cells via baculovirus transduction and cells were harvested after 48 hours. The soluble proteins were purified using the standard Ni-IMAC purification strategy via the N-terminal hexa-Histidine tag, followed by heparin affinity chromatography. Both of the final MBP fusion proteins were more than 90% pure and the yield of UL54 was up to 1.8 mg per liter culture while UL30 was up to 15 mg per liter culture. All purification steps were performed on ice, with buffers chilled on ice and FPLC fraction collectors set at 6° C. […] UL30 protein was stored in buffer containing 20 mM HEPES, pH7.0, 420 mM NaCl, 20% glycerol, 6 mM Imidazole, and 0.8 mM DTT at−80° C.
(§2) DNA polymerase activity was measured using a molecular beacon-based assay, as described in Ma et. al.
(§3) 100 pM CMV polymerase or 625 pM HSV polymerase was added to a buffer containing 20 mM Tris, pH=7.5, 100 mM NaCl, 10 mM MgCl2, 0.01% Tween-20, 0.5 mM EDTA, 10% Sucrose and 1 mM DTT. The inhibitor was pre-incubated with the polymerase for 30 minutes at room temperature. Reactions were initiated by the addition of a mixture containing 1.25 uM dATP, 1.25 uM dCTP, 1.25 uM dTTP, 1.25 uM dGTP, 200 nM Primer B (5′-GAC GGG AAG-3′5′-GAC GGG AAG-3′) and 100 nM molecular beacon (5′-5,6-FAM-CCTCTCCGTGTCTTGTACTTCCCGTCAGAGAGG-BHQ1-3′). For human CMV polymerase the reactions were incubated for 60 minutes at room temperature. For HSV polymerase the reactions were incubated for 20 minutes at room temperature. The reactions were then read on a Perkin-Elmer EnVision 2101 reader (fluorescence) using an excitation of 480 nm and emission of 535 nm. 1050s were determined using an internal Novartis software (Helios).
as §3, with “nm.” for “nm. 1050s were determined using an internal Novartis software (Helios).”

[2] = test system: Luciferase-encoding HCMV, AD169 strain; experiment: CMV Luciferase assay (cellular herpesvirus replication); type: cell-based; conditions: Human betaherpesvirus 5, AD169, read-out: CMV-Luc Cellular EC50
Description: For all viral assays, 10 mM DMSO stock compound solutions were serially diluted in DMSO at 3.16 fold dilutions in 96-well clear round bottom plates. Compounds were then diluted in assay media at 1:20 and subsequently 10 μL of these dilutions were added to cells for final compound concentrations ranging either from 0.0159 μM to 50 μM in 0.5% DMSO/assay media, or from 0.00318 to 10 μM in 0.5% DMSO/assay media.
The assay uses a Luciferase-encoding HCMV. Luciferase is expressed under the control of a late viral gene (pp28) promoter in the AD169 strain, so that expression of the reporter is dependent on viral DNA replication. Compounds that affect any stage from viral entry to DNA replication result in a change in luciferase levels.
Viral replication in the presence or absence of compounds was measured by luciferase activity according to the following procedure: Neo-natal normal human dermal fibroblast cells (NN-NHDF, from ATCC cat #201-010) were seeded at 9,000 cells/well in 96-well white solid bottom plate at 80 uL/well in assay media: 2% FBS, 4 mM GlutaMax® (Invitrogen cat #35050) in DMEM/high glucose/no glutamine/no phenol red media (Invitrogen cat #31053). After 2 hrs at 37° C., 10 uL of compound diluted in assay media or 5% DMSO (final 0.5% DMSO/well) was added and the plates returned to 37° C. One hour later, 10 uL of virus diluted in assay media was added at a final Multiplicity of infection (MOI) of 1. Plates were incubated at 37° C. for 72 hrs. At 72 hours post-infection (hpi), plates were equilibrated to room temperature. After 25 min, 100 uL Renilla-Glo® Luciferase Assay Reagent (Promega cat # E2750) was added to each well and incubated for 10 min. Plates were covered to protect from light. Luminescence was measured on the PHERAstar FS®.
The following controls were included in the data analysis: No virus, no compound (0.5% DMSO)=IC (maximal inhibitory control); Virus, no compound (0.5% DMSO)=NC (neutral control). Data were analyzed using an internal Novartis software (Helios). The means of the controls (NC, IC) were used to normalize the results to a % scale using the formula: % Control=100−(100*(Sample value−NC)/(IC−NC)).
For each compound, the software derived an EC50 using a 4-parameter logistical model.

[3] = target: human HSV DNA polymerase UL30 (Human herpesvirus 1 (strain 17) (HHV-1) (Human herpes simplex virus 1), UniProt P04293); experiment: HSV polymerase biochemical assay (molecular beacon-based)
Description: as §1, §2, §3
as §3, with “nm.” for “nm. 1050s were determined using an internal Novartis software (Helios).”

Work on CN(CCN1CCn2c(c(CCCO)cc(C(=O)NCc3ccc(Cl)cc3)c2=O)C1=O)S(C)(=O)=O [Example 157, N-(4-chlorobenzyl)-9-(3-hydroxypropyl)-2-(2-(N-methylmethylsulfonamido)ethyl)-1,6-dioxo-1,3,4,6-tetrahydro-2H-pyrido[1,2-a]pyrazine-7-carboxamide] yielded an IC50 [1] of 223 nM, an EC50 [2] of 7720 nM and an IC50 [3] of 1800 nM.
Compound Cc1cc(C(=O)NCc2ccc(F)cc2)c(=O)n2c1C(=O)N(CC1(S(C)(=O)=O)CC1)CC2 [Example 86-1] has an IC50 [1] of 11.2 nM, an EC50 [2] of 1520 nM and an IC50 [3] of 287 nM.
C[S@@+]([O-])C1(CN2CCn3c(ccc(C(=O)NCc4ccc(C#N)cc4)c3=O)C2=O)CC1 [Example 68-2] was tested, and the IC50 [1] was 62.2 nM, the EC50 [2] was 2860 nM and the IC50 [3] was 2730 nM.
In the case of CC(C)(C(=O)O)S(=O)(=O)C1(CN2CCn3c(ccc(C(=O)NCc4ccc(Cl)cc4)c3=O)C2=O)CC1 [Example 175, 2-((1-((7-((4-chlorobenzyl)carbamoyl)-1,6-dioxo-1,3,4,6-tetrahydro-2H-pyrido[1,2-a]pyrazin-2-yl)methyl)cyclopropyl)sulfonyl)-2-methylpropanoic acid], the IC50 [1] is reported as 0.8 nM, the EC50 [2] is reported as 6050 nM and the IC50 [3] is reported as 24.4 nM.
For C[S+]([O-])C1(CN2CCn3c(ccc(C(=O)NCc4ccc(C#N)cc4)c3=O)C2=O)CC1 (stereo not drawn) [Example 68-1, N-(4-cyanobenzyl)-2-((1-(methylsulfinyl)cyclopropyl)methyl)-1,6-dioxo-2,3,4,6-tetrahydro-1H-pyrido[1,2-a]pyrazine-7-carboxamide], the IC50 [1] was 146 nM, the EC50 [2] was 3170 nM and the IC50 [3] was 3800 nM.
Work on N#Cc1ccc(CNC(=O)c2ccc3n(c2=O)CCN(CC2(S(=O)(=O)[C@H]4CC4(F)F)CC2)C3=O)cc1F (single isomer, unassigned) [Example 101-1] yielded an IC50 [1] of 1 nM, an EC50 [2] of 55.5 nM and an IC50 [3] of 48.7 nM.
N#Cc1ccc(CNC(=O)c2ccc3n(c2=O)CCN(CC2(S(=O)(=O)C4(C(F)(F)F)CC4)CC2)C3=O)cc1 [Example 97-1] gave an IC50 [1] of 5 nM, an EC50 [2] of 222 nM and an IC50 [3] of 122 nM.
Compound CC(C)(C)S(=O)(=O)C1(CN2CCn3c(ccc(C(=O)NCc4ccc(C#N)c(F)c4)c3=O)C2=O)CC1 [Example 26] has an IC50 [1] of 0.6 nM, an EC50 [2] of 8.9 nM and an IC50 [3] of 45.5 nM.
Work on O=C(NCc1ccc(Cl)cc1)c1ccc2n(c1=O)CCN(CC1(S(=O)(=O)C3COC3)CC1)C2=O [Example 30] yielded an IC50 [1] of 1.5 nM, an EC50 [2] of 36.3 nM and an IC50 [3] of 38 nM.
Compound N#Cc1ccc(CNC(=O)c2ccc3n(c2=O)CCN(CC2(S(=O)(=O)CCCO)CC2)C3=O)cc1 [Example 24] has an IC50 [1] of 4.7 nM, an EC50 [2] of 832 nM and an IC50 [3] of 168 nM.
COCC1(S(=O)(=O)C2(CN3CCn4c(ccc(C(=O)NCc5ccc(C#N)cc5)c4=O)C3=O)CC2)CC1 [Example 15] showed an IC50 [1] of 0.7 nM, an EC50 [2] of 30.2 nM and an IC50 [3] of 26 nM.
In the case of N#Cc1ccc(CNC(=O)c2ccc3n(c2=O)CCN(CC2(S(=O)(=O)C4CCNC4)CC2)C3=O)cc1F (stereo not drawn) [Example 81-1], the IC50 [1] is reported as 3.8 nM, the EC50 [2] is reported as 1070 nM and the IC50 [3] is reported as 152 nM.
In the case of N#Cc1ccc(CNC(=O)c2ccc3n(c2=O)CCN(CC2(S(=O)(=O)C4(C(F)F)CC4)CC2)C3=O)cc1F [Example 99-2], the IC50 [1] is reported as 0.7 nM, the EC50 [2] is reported as 30.1 nM and the IC50 [3] is reported as 52.4 nM.
With N#CC1(CS(=O)(=O)C2(CN3CCn4c(ccc(C(=O)NCc5ccc(Cl)cc5)c4=O)C3=O)CC2)CC1 [Example 110, N-(4-chlorobenzyl)-2-((1-(((1-cyanocyclopropyl)methyl)sulfonyl)cyclopropyl)methyl)-1,6-dioxo-1,3,4,6-tetrahydro-2H-pyrido pyrazine-7-carboxamide] the IC50 [1] was 1.9 nM, the EC50 [2] was 81.7 nM and the IC50 [3] was 33.5 nM.
Work on C[S+]([O-])C1(CN2CCn3c(ccc(C(=O)NCc4ccc(Cl)cc4)c3=O)C2=O)CC1 (stereo not drawn) [Example 67-1, N-(4-chlorobenzyl)-2-((1-(methylsulfinyl)cyclopropyl)methyl)-1,6-dioxo-2,3,4,6-tetrahydro-1H-pyrido[1,2-a]pyrazine-7-carboxamide] yielded an IC50 [1] of 57.3 nM, an EC50 [2] of 868 nM and an IC50 [3] of 1780 nM.
With CN(C(C)(C)C)S(=O)(=O)C1(CN2CCn3c(ccc(C(=O)NCc4ccc(C#N)cc4)c3=O)C2=O)CC1 [Example 75-1] the IC50 [1] was 1.1 nM, the EC50 [2] was 35.6 nM and the IC50 [3] was 45.9 nM.
C[C@H](NC(=O)c1ccc2n(c1=O)CCN(CC1(S(C)(=O)=O)CC1)C2=O)c1ccc(Cl)cc1 [Example 44] gave an IC50 [1] of 763 nM, an EC50 [2] of 10000 nM and an IC50 [3] of 62900 nM.
C[C@@H](CCO)S(=O)(=O)C1(CN2CCn3c(ccc(C(=O)NCc4ccc(Cl)cc4)c3=O)C2=O)CC1 (single isomer, unassigned) [Example 7, N-(4-chlorobenzyl)-2-((1-((4-hydroxybutan-2-yl)sulfonyl)cyclopropyl)methyl)-1,6-dioxo-2,3,4,6-tetrahydro-1H-pyrido[1,2-a]pyrazine-7-carboxamide] showed an IC50 [1] of 1 nM, an EC50 [2] of 32.8 nM and an IC50 [3] of 35.6 nM.
CS(=O)(=O)CCCN1CCn2c(c(C#N)cc(C(=O)NCc3ccc(Cl)cc3)c2=O)C1=O [Example 126] was tested, and the IC50 [1] was 1200 nM, the EC50 [2] was 50000 nM and the IC50 [3] was 1970 nM.
Work on O=C(NCc1ccc(Cl)cc1)c1cc(F)c2n(c1=O)CCN(CCN1CCCS1(=O)=O)C2=O [Example 163] yielded an IC50 [1] of 23.2 nM, an EC50 [2] of 370 nM and an IC50 [3] of 141 nM.
For N#Cc1ccc(CNC(=O)c2ccc3n(c2=O)CCN(CC2(N4CCOC4=O)CC2)C3=O)cc1 [Example 89-2], the IC50 [1] was 174 nM, the EC50 [2] was 3330 nM and the IC50 [3] was 2520 nM.
C[C@H](CCO)S(=O)(=O)C1(CN2CCn3c(ccc(C(=O)NCc4ccc(C#N)cc4)c3=O)C2=O)CC1 (single isomer, unassigned) [Example 9, N-(4-cyanobenzyl)-2-((1-((4-hydroxybutan-2-yl)sulfonyl)cyclopropyl)methyl)-1,6-dioxo-2,3,4,6-tetrahydro-1H-pyrido[1,2-a]pyrazine-7-carboxamide] gave an IC50 [1] of 1.7 nM, an EC50 [2] of 167 nM and an IC50 [3] of 73.8 nM.
